Like-named read-outs stand apart in the source and are kept apart here.
Experiments:
Format in all cases: cell-based, human
[1] = test system: TSGH-8301 (Urinary Bladder Carcinoma); experiment: Cell viability analysis, bladder cancer TSGH-8301; settings: Homo sapiens, 72 h
[2] = test system: HI650 (Lung Adenocarcinoma); experiment: Cell viability analysis, lung cancer HI650; settings: Homo sapiens, NCI-H1650, 72 h
[3] = test system: MDA-MB-231 (Mammary Gland, Adenocarcinoma); experiment: Cell viability analysis, breast cancer MDA-MB-231; settings: Homo sapiens, MDA-MB-231, 72 h; MDA-MB231; repeated experiment; read-out: The results of antibiotic drug inhibiting cancer cell lines (cell viability analysis), MDA-MB231
[4] = test system: LoVo (Colorectal Adenocarcinoma); experiment: Cell viability analysis, colon cancer LoVo; settings: Homo sapiens, LoVo, 72 h
[5] = test system: C-33A (Cervical carcinoma); experiment: Cell viability analysis, cervical cancer C-33A; settings: Homo sapiens, 72 h; C-33A; repeated experiment; read-out: The results of antibiotic drug inhibiting cancer cell lines (cell viability analysis), C-33A
[6] = test system: HL-60 (Acute Promyelocytic Leukemia); experiment: Cell viability analysis, leukemia HL-60; settings: Homo sapiens, HL-60, 72 h, drug 10 μM, 72 hours, WST-1, OD450 nm; read-out: cell viability (survival rate), HL-60
[7] = test system: TOV-21G; experiment: Cell viability analysis, ovarian cancer TOV-21G; settings: Homo sapiens, TOV21G, 72 h; TOV-21G; repeated experiment; read-out: The results of antibiotic drug inhibiting cancer cell lines (cell viability analysis), TOV-21G
[8] = test system: A375 (Amelanotic Melanoma); experiment: Cell viability analysis, skin cancer A375; settings: Homo sapiens, A-375, 72 h
[9] = test system: BxPC-3; experiment: Cell viability analysis, pancreatic cancer BxPC-3; settings: Homo sapiens, 72 h; BxPC-3; repeated experiment; read-out: The results of antibiotic drug inhibiting cancer cell lines (cell viability analysis), BxPC-3
[10] = test system: A549 (Lung Adenocarcinoma); experiment: Cell viability analysis, lung cancer A549; settings: Homo sapiens, A549, 72 h
[11] = test system: BCC (basal cell carcinoma); experiment: Cell viability analysis, skin cancer BCC; settings: Homo sapiens, 72 h; BCC; repeated experiment; read-out: The results of antibiotic drug inhibiting cancer cell lines (cell viability analysis), BCC
[12] = test system: HepG2 (Hepatocellular Carcinoma); experiment: Cell viability analysis, hepatic cancer HepG2; settings: Homo sapiens, HepG2, 72 h
[13] = test system: AsPC-1; experiment: Cell viability analysis, pancreatic cancer AsPC-1; settings: Homo sapiens, ASPC1, 72 h; AsPC-1; repeated experiment; read-out: The results of antibiotic drug inhibiting cancer cell lines (cell viability analysis), AsPC-1
[14] = test system: AGS (Gastric Adenocarcinoma); experiment: Cell viability analysis, gastric cancer AGS; settings: Homo sapiens, 72 h
[15] = test system: MCF7 (Mammary Gland, Adenocarcinoma); experiment: Cell viability analysis, breast cancer MCF7; settings: Homo sapiens, MCF7, 72 h
[16] = test system: NIH: OVCAR-3; experiment: Cell viability analysis, ovarian cancer NIH: OVCAR-3; settings: Homo sapiens, 72 h; NIH-OVCAR-3; repeated experiment; read-out: The results of antibiotic drug inhibiting cancer cell lines (cell viability analysis), NIH-OVCAR-3
[17] = test system: HeLa (Cervix Adenocarcinoma); experiment: Cell viability analysis, cervical cancer HeLa; settings: Homo sapiens, HeLa, 72 h, HeLa
[18] = test system: SAS (Tongue squamous cell carcinoma); experiment: Cell viability analysis, tongue cancer SAS; settings: Homo sapiens, 72 h; SAS; repeated experiment; read-out: The results of antibiotic drug inhibiting cancer cell lines (cell viability analysis), SAS
[19] = test system: U-2OS; experiment: Cell viability analysis, osteosarcoma U-2OS; settings: Homo sapiens, 72 h; U2OS; repeated experiment; read-out: The results of antibiotic drug inhibiting cancer cell lines (cell viability analysis), U2OS
[20] = test system: PC3 (p53−) (Prostate Adenocarcinoma); experiment: Cell viability analysis, prostate cancer PC3; settings: Homo sapiens, 72 h
[21] = test system: cancer cell lines; experiment: Cell viability analysis (WST-1) on cancer cell lines; settings: drug 10 μM, 72 hours, WST-1; Table 3
[22] = test system: MKN-45 (Gastric Adenocarcinoma); experiment: Cell viability analysis, gastric cancer MKN-45; settings: Homo sapiens, MKN-45, 72 h
[23] = test system: T24; experiment: Cell viability analysis, bladder cancer T24; settings: Homo sapiens, T-24, 72 h; T24; repeated experiment; read-out: The results of antibiotic drug inhibiting cancer cell lines (cell viability analysis), T24
[24] = test system: Hep3B (hepatocellular carcinoma); experiment: Cell viability analysis, hepatic cancer Hep3B; settings: Homo sapiens, 72 h; Hep3B; repeated experiment; read-out: The results of antibiotic drug inhibiting cancer cell lines (cell viability analysis), Hep3B

CC(C)(C)CC(C)(C)c1ccc(O)c(Cc2ccc(Cl)cc2Cl)c1 [Clofoctol]
viability at 10 µM ([1]; TSGH-8301, repeated experiment, read-out: The results of antibiotic drug inhibiting cancer cell lines (cell viability analysis), TSGH-8301): 109%
viability at 10 µM ([1]; drug 10 μM, 72 hours, WST-1, OD450 nm, read-out: cell viability (survival rate), TSGH): 72.3%
viability at 10 µM ([2]; H1650, repeated experiment, read-out: The results of antibiotic drug inhibiting cancer cell lines (cell viability analysis), H1650): 69.6%
viability at 10 µM ([2]; drug 10 μM, 72 hours, WST-1, OD450 nm, read-out: cell viability (survival rate), H1650): 77%
viability at 10 µM [3]: 102%
viability at 10 µM ([4]; read-out: The results of antibiotic drug inhibiting cancer cell lines (cell viability analysis), LoVo, repeated experiment): 67.1%
viability at 10 µM ([4]; read-out: cell viability (survival rate), LoVo, drug 10 μM, 72 hours, WST-1, OD450 nm): 74.7%
viability at 10 µM [5]: 117%
viability at 10 µM [6]: 83%
viability at 10 µM [7]: 73.1%
viability at 10 µM ([8]; A375, repeated experiment, read-out: The results of antibiotic drug inhibiting cancer cell lines (cell viability analysis), A375): 109%
viability at 10 µM ([8]; drug 10 μM, 72 hours, WST-1, OD450 nm, read-out: cell viability (survival rate), A375): 34.5%
viability at 10 µM [9]: 65.8%
viability at 10 µM ([10]; A549, repeated experiment, read-out: The results of antibiotic drug inhibiting cancer cell lines (cell viability analysis), A549): 90.6%
viability at 10 µM ([10]; drug 10 μM, 72 hours, WST-1, OD450 nm, read-out: cell viability (survival rate), A549): 55.6%
viability at 10 µM [11]: 94.6%
viability at 10 µM ([12]; HepG2, repeated experiment, read-out: The results of antibiotic drug inhibiting cancer cell lines (cell viability analysis), HepG2): 114%
viability at 10 µM ([12]; drug 10 μM, 72 hours, WST-1, OD450 nm, read-out: cell viability (survival rate), HepG2): 77.9%
viability at 10 µM [13]: 78.7%
viability at 10 µM ([14]; AGS, repeated experiment, read-out: The results of antibiotic drug inhibiting cancer cell lines (cell viability analysis), AGS): 83.9%
viability at 10 µM ([14]; drug 10 μM, 72 hours, WST-1, OD450 nm, read-out: cell viability (survival rate), AGS): 86.7%
viability at 10 µM ([15]; MCF-7, repeated experiment, read-out: The results of antibiotic drug inhibiting cancer cell lines (cell viability analysis), MCF-7): 83%
viability at 10 µM ([15]; drug 10 μM, 72 hours, WST-1, OD450 nm, read-out: cell viability (survival rate), MCF7): 48.1%
viability at 10 µM [16]: 97.8%
viability at 10 µM ([17]; repeated experiment, read-out: The results of antibiotic drug inhibiting cancer cell lines (cell viability analysis), HeLa): 98%
viability at 10 µM ([17]; drug 10 μM, 72 hours, WST-1, OD450 nm, read-out: cell viability (survival rate), HeLa): 58%
viability at 10 µM [18]: 73.2%
viability at 10 µM [19]: 74.9%
viability at 10 µM ([20]; PC-3, repeated experiment, read-out: The results of antibiotic drug inhibiting cancer cell lines (cell viability analysis), PC-3): 110%
viability at 10 µM ([20]; drug 10 μM, 72 hours, WST-1, OD450 nm, read-out: cell viability (survival rate), PC3): 63.4%
inhibition effect on different cancer cell lines [21]: significant inhibition effect
viability at 10 µM ([22]; MKN-45, repeated experiment, read-out: The results of antibiotic drug inhibiting cancer cell lines (cell viability analysis), MKN-45): 117%
viability at 10 µM ([22]; drug 10 μM, 72 hours, WST-1, OD450 nm, read-out: cell viability (survival rate), MKN-45): 73.6%
viability at 10 µM [23]: 90.8%
viability at 10 µM [24]: 135%

From patent US10105357B2, “Indication of antibiotic drugs for preparation of cancer inhibition pharmaceutical composition” (LAUNX BIOMEDICAL CO., LTD., priority 2014, dated 2018)
